Test results as given in patent US11173151B2, “Substituted triazole derivatives and uses thereof” (BAYER AKTIENGESELLSCHAFT, priority 2017, dated 2021).

Key:
[1] = biological target: T1, human V1a receptor (Homo sapiens, UniProt P37288); experiment: Cellular in vitro assay for determining vasopressin receptor activity, V1a receptor cell line (CHO, aequorin luminescence); format: cell-based; settings: for IC50: CHO cell line transfected with human V1a receptor, [Arg]-vasopressin at EC50 concentration, read-out: IC50 hV1a; for ratio IC50 hV2/hV1a: selectivity ratio IC50 hV2 / IC50 hV1a
T1 construct: expressed in transfected cells; host or cells: CHO K1 (ATCC), also stably transfected with a modified aequorin
Description: (§1) B-1. Cellular In Vitro Assay for Determining Vasopressin Receptor Activity
(§2) The identification of agonists and antagonists of the V1a and V2 vasopressin receptors from humans, rats and dogs as well as the quantification of the activity of the compounds of the invention is carried out using recombinant cell lines. These cell lines originally derive from a hamster's ovary epithelial cell (Chinese Hamster Ovary, CHO K1, ATCC: American Type Culture Collection, Manassas, Va. 20108, USA). The test cell lines constitutively express the human, rat or dog V1a or V2 receptors. In case of the Gαq-coupled V1a receptors, cells are also stably transfected with a modified form of the calcium-sensitive photoproteins aequorin (human and rat V1a) or obelin (dog V1a), which, after reconstitution with the cofactor coelenterazine, emit light when there are increases in free calcium concentrations [Rizzuto R, Simpson A W, Brini M, Pozzan T, Nature 358, 325-327 (1992); Illarionov B A, Bondar V S, Illarionova V A, Vysotski E S, Gene 153 (2), 273-274 (1995)]. The resulting vasopressin receptor cells react to stimulation of the recombinantly expressed V1a receptors by intracellular release of calcium ions, which can be quantified by the resulting photoprotein luminescence. The Gs-coupled V2 receptors are stably transfected into cell lines expressing the gene for firefly luciferase under control of a CRE-responsible promoter. Activation of V2 receptors induces the activation of the CRE-responsive promoter via cAMP increase, thereby inducing the expression of firefly luciferase. The light emitted by photoproteins of V1a cell lines as well as the light emitted by firefly luciferase of V2 cell lines corresponds to the activation or inhibition of the respective vasopressin receptor. The bioluminescence of the cell lines is detected using a suitable luminometer [Milligan G, Marshall F, Rees S, Trends in Pharmacological Sciences 17, 235-237 (1996)].
Vasopressin V1a Receptor Cell Lines:
On the day before the assay, the cells are plated out in culture medium (DMEM/F12, 2% FCS, 2 mM glutamine, 10 mM HEPES, 5 μg/ml coelenterazine) in 384-well microtiter plates and kept in a cell incubator (96% humidity, 5% v/v CO2, 37° C.). On the day of the assay, test compounds in various concentrations are placed for 10 minutes in the wells of the microtiter plate before the agonist [Arg]-vasopressin at EC50 concentration is added. The resulting light signal is measured immediately in a luminometer.
(§3) Table 1A below lists individual IC50 values for the compounds of the invention (including racemic mixtures as well as separated enantiomers) that were obtained from cell lines transfected with the human V1a or V2 receptor: […]

[2] = biological target: T2, human V2 receptor (Homo sapiens, UniProt P30518); experiment: Cellular in vitro assay for determining vasopressin receptor activity, V2 receptor cell line (CHO, CRE-luciferase); format: cell-based; settings: CHO cell line transfected with human V2 receptor; [Arg8]-vasopressin at EC50 concentration, 3 hours; read-out: IC50 hV2
T2 construct: expressed in transfected cells; host or cells: CHO K1 (ATCC) expressing firefly luciferase under a CRE-responsive promoter
Description: as §1, §2
Vasopressin V2 Receptor Cell Lines:
On the day before the assay, the cells are plated out in culture medium (DMEM/F12, 2% FCS, 2 mM glutamine, 10 mM HEPES) in 384-well microtiter plates and kept in a cell incubator (96% humidity, 5% v/v CO2, 37° C.). On the day of the assay, test compounds in various concentrations and the agonist [Arg^8]-vasopressin at EC50 concentration are added together to the wells, and plates are incubated for 3 hours in a cell incubator. Upon addition of the cell lysis reagent Triton™ and the substrate luciferin, luminescence of firefly luciferase is measured in a luminometer.
as §3

T1 sequence (P37288 whole entry): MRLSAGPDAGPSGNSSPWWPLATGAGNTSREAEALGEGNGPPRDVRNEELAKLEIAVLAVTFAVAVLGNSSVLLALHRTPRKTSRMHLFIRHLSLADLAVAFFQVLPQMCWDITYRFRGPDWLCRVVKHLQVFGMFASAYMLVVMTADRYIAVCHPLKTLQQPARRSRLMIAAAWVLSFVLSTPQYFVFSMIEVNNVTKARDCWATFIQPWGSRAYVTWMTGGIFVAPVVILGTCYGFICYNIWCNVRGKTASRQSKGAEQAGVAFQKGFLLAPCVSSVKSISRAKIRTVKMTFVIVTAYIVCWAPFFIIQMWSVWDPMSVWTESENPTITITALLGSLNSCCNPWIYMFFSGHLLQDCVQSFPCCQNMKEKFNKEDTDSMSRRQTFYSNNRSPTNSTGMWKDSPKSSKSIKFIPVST
T2 sequence (P30518 whole entry): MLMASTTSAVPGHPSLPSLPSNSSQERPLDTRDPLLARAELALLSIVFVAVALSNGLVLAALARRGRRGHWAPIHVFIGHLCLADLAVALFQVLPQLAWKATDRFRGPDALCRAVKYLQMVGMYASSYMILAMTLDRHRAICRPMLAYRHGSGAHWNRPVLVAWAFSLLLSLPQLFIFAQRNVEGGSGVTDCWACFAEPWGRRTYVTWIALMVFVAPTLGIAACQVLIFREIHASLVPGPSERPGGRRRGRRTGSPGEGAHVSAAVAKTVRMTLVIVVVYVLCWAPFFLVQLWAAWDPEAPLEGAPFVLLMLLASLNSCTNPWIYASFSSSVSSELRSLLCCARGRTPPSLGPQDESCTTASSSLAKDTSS

Compound | IC50 [1] [nM] | ratio IC50 hV2/hV1a [1] | IC50 [2] [nM]
O=C1CCC(CNc2ccncc2-n2cnc(Cn3nc(-c4ccc(Cl)cc4)n(C[C@H](O)C(F)(F)F)c3=O)n2)N1 (mixture of isomers) [Example 7, 5-(4-Chlorophenyl)-2-({1-[4-({[5-oxopyrrolidin-2-yl]methyl}amino)pyridin-3-yl]-1H-1,2,4-triazol-3-yl}methyl)-4-[(2S)-3,3,3-trifluoro-2-hydroxypropyl]-2,4-dihydro-3H-1,2,4-triazol-3-one] | 1750 | 2.2 | 3850
CC1(O)CCN(c2ccncc2-n2cnc(Cn3nc(-c4ccc(Cl)cc4)n(C[C@H](O)C(F)(F)F)c3=O)n2)C1 (mixture of isomers) [Example 13, 5-(4-Chlorophenyl)-2-[(1-{4-[3-hydroxy-3-methylpyrrolidin-1-yl]pyridin-3-yl}-1H-1,2,4-triazol-3-yl)methyl]-4-[(2S)-3,3,3-trifluoro-2-hydroxypropyl]-2,4-dihydro-3H-1,2,4-triazol-3-one] | 575 | 0.2 | 90.6
O=C(Nc1ccncc1-n1cnc(Cn2nc(-c3ccc(Cl)cc3)n(C[C@H](O)C(F)(F)F)c2=O)n1)C1CC1(F)F (mixture of isomers) [Example 29, N-{3-[3-({3-(4-Chlorophenyl)-5-oxo-4-[(2S)-3,3,3-trifluoro-2-hydroxypropyl]-4,5-dihydro-1H-1,2,4-triazol-1-yl}methyl)-1H-1,2,4-triazol-1-yl]pyridin-4-yl}-2,2-difluorocyclopropanecarboxamide] | 16.5 | 22.1 | 365
O=C(Nc1cccnc1-n1cnc(Cn2nc(-c3ccc(Cl)cc3)n(C[C@H](O)C(F)(F)F)c2=O)n1)C1CC1(F)F (mixture of isomers) [Example 41, N-{2-[3-({3-(4-Chlorophenyl)-5-oxo-4-[(2S)-3,3,3-trifluoro-2-hydroxypropyl]-4,5-dihydro-1H-1,2,4-triazol-1-yl}methyl)-1H-1,2,4-triazol-1-yl]pyridin-3-yl}-2,2-difluorocyclopropanecarboxamide] | 3.5 | 64.4 | 225
O=C(Nc1cccnc1-n1cnc(Cn2nc(-c3ccc(Cl)cc3)n(C[C@H](O)C(F)(F)F)c2=O)n1)C1CCS(=O)(=O)C1 (mixture of isomers) [Example 50, N-{2-[3-({3-(4-Chlorophenyl)-5-oxo-4-[(2S)-3,3,3-trifluoro-2-hydroxypropyl]-4,5-dihydro-1H-1,2,4-triazol-1-yl}methyl)-1H-1,2,4-triazol-1-yl]pyridin-3-yl}tetrahydrothiophene-3-carboxamide 1,1-dioxide] | 20.5 | 213.0 | 4370
O=C(Nc1cccnc1-n1cnc(Cn2nc(-c3ccc(Cl)cc3)n(CC(O)C(F)(F)F)c2=O)n1)C1CC1F (mixture of isomers) [Example 59, N-{2-[3-({3-(4-Chlorophenyl)-5-oxo-4-[(2S)-3,3,3-trifluoro-2-hydroxypropyl]-4,5-dihydro-1H-1,2,4-triazol-1-yl}methyl)-1H-1,2,4-triazol-1-yl]pyridin-3-yl}-2-fluorocyclopropanecarboxamide] | 5.13 | 185.4 | 950
O=C(Nc1ncccc1-n1cnc(Cn2nc(-c3ccc(Cl)cc3)n(C[C@H](O)C(F)(F)F)c2=O)n1)C1CC1(F)F (mixture of isomers) [Example 75, N-{3-[3-({3-(4-Chlorophenyl)-5-oxo-4-[(2S)-3,3,3-trifluoro-2-hydroxypropyl]-4,5-dihydro-1H-1,2,4-triazol-1-yl}methyl)-1H-1,2,4-triazol-1-yl]pyridin-2-yl}-2,2-difluorocyclopropanecarboxamide] | 6.6 | 197.0 | 1300
O=C(Nc1ncccc1-n1cnc(Cn2nc(-c3ccc(Cl)cc3)n(C[C@H](O)C(F)(F)F)c2=O)n1)C1CCS(=O)(=O)C1 (mixture of isomers) [Example 82, N-{3-[3-({3-(4-Chlorophenyl)-5-oxo-4-[(2S)-3,3,3-trifluoro-2-hydroxypropyl]-4,5-dihydro-1H-1,2,4-triazol-1-yl}methyl)-1H-1,2,4-triazol-1-yl]pyridin-2-yl}tetrahydrothiophene-3-carboxamide 1,1-dioxide] | 33 | 10.2 | 335
CC1(O)CCN(C(=O)c2ccccc2-n2cnc(Cn3nc(-c4ccc(Cl)cc4)n(C[C@H](O)C(F)(F)F)c3=O)n2)C1 (mixture of isomers) [Example 183, 5-(4-Chlorophenyl)-2-{[1-(2-{[3-hydroxy-3-methylpyrrolidin-1-yl]carbonyl}phenyl)-1H-1,2,4-triazol-3-yl]methyl}-4-[(2S)-3,3,3-trifluoro-2-hydroxypropyl]-2,4-dihydro-3H-1,2,4-triazol-3-one] | 88 | 39.8 | 3500
O=C1CCC(NC(=O)c2ccccc2-n2cnc(Cn3nc(-c4ccc(Cl)cc4)n(C[C@H](O)C(F)(F)F)c3=O)n2)CN1 (mixture of isomers) [Example 191] | 19.5 | 192.3 | 3750
NC(CNC(=O)c1ccccc1-n1cnc(Cn2nc(-c3ccc(Cl)cc3)n(C[C@H](O)C(F)(F)F)c2=O)n1)C(F)(F)C(F)F (mixture of isomers) [Example 196, N-[2-Amino-3,3,4,4-tetrafluorobutyl]-2-[3-({3-(4-chlorophenyl)-5-oxo-4-[(2S)-3,3,3-trifluoro-2-hydroxypropyl]-4,5-dihydro-1H-1,2,4-triazol-1-yl}methyl)-1H-1,2,4-triazol-1-yl]benzamide] | 22 | 38.9 | 855
CC1(CNC(=O)c2ccccc2-n2cnc(Cn3nc(-c4ccc(Cl)cc4)n(C[C@H](O)C(F)(F)F)c3=O)n2)CCCO1 (mixture of isomers) [Example 202, 2-[3-({3-(4-Chlorophenyl)-5-oxo-4-[(2S)-3,3,3-trifluoro-2-hydroxypropyl]-4,5-dihydro-1H-1,2,4-triazol-1-yl}methyl)-1H-1,2,4-triazol-1-yl]-N-{[2-methyltetrahydrofuran-2-yl]methyl}benzamide] | 4.3 | 0.9 | 4.05
O=C(c1ncccc1-n1cnc(Cn2nc(-c3ccc(Cl)cc3)n(C[C@@H](O)C(F)(F)F)c2=O)n1)N1CCNC(C(F)(F)F)C1 (mixture of isomers) [Example 476, 5-(4-Chlorophenyl)-4-[(2R)-3,3,3-trifluoro-2-hydroxypropyl]-2-{[1-(2-{[3-(trifluoromethyl)piperazin-1-yl]carbonyl}pyridin-3-yl)-1H-1,2,4-triazol-3-yl]methyl}-2,4-dihydro-3H-1,2,4-triazol-3-one] | 750 | 133.3 | 
O=C(N[C@H]1C[C@@H]1F)c1ncccc1-n1nc(Cn2nc(-c3ccc(Cl)cc3)n(C[C@@H](O)C(F)(F)F)c2=O)nc1N1CCS(=O)(=O)CC1 (racemic) [Example 487, 3-[3-({3-(4-Chlorophenyl)-5-oxo-4-[(2R)-3,3,3-trifluoro-2-hydroxypropyl]-4,5-dihydro-1H-1,2,4-triazol-1-yl}methyl)-5-(1,1-dioxidothiomorpholin-4-yl)-1H-1,2,4-triazol-1-yl]-N-[2-fluorocyclopropyl]pyridine-2-carboxamide] | 5300 | 18.9 | 
O=C1CN(C(=O)c2ncccc2-n2cnc(Cn3nc(-c4ccc(Cl)cc4)n(C[C@@H](O)C(F)(F)F)c3=O)n2)CCN1 [Example 469, 4-({3-[3-({3-(4-Chlorophenyl)-5-oxo-4-[(2R)-3,3,3-trifluoro-2-hydroxypropyl]-4,5-dihydro-1H-1,2,4-triazol-1-yl}methyl)-1H-1,2,4-triazol-1-yl]pyridin-2-yl}carbonyl)piperazin-2-one] | 560 | 178.6 | 
